Source: ChEMBL document CHEMBL4665642, “Anticancer profile of newly synthesized BRAF inhibitors possess 5-(pyrimidin-4-yl)imidazo[2,1-b]thiazole scaffold” (Bioorg Med Chem, 2019)

Experiments:
Format in all cases: functional
Details in all cases: read-out: Activity
[1] = system: M14; test: Cytotoxicity against human M14 cells assessed as cell viability at 10 uM incubated for 48 hrs by sulforhodamine B assay relative to control
[2] = system: OVCAR-3; test: Cytotoxicity against human OVCAR-3 cells assessed as cell viability at 10 uM incubated for 48 hrs by sulforhodamine B assay relative to control
[3] = system: HOP-92; test: Cytotoxicity against human HOP-92 cells assessed as cell viability at 10 uM incubated for 48 hrs by sulforhodamine B assay relative to control
[4] = system: MDA-MB-231; test: Cytotoxicity against human MDA-MB-231 cells assessed as cell viability at 10 uM incubated for 48 hrs by sulforhodamine B assay relative to control
[5] = system: UACC-257; test: Cytotoxicity against human UACC-257 cells assessed as cell viability at 10 uM incubated for 48 hrs by sulforhodamine B assay relative to control
[6] = system: Hs-578T; test: Cytotoxicity against human HS-578T cells assessed as cell viability at 10 uM incubated for 48 hrs by sulforhodamine B assay relative to control
[7] = system: COLO 205; test: Cytotoxicity against human COLO 205 cells assessed as cell viability at 10 uM incubated for 48 hrs by sulforhodamine B assay relative to control
[8] = system: MOLT-4; test: Cytotoxicity against human MOLT-4 cells assessed as cell viability at 10 uM incubated for 48 hrs by sulforhodamine B assay relative to control
[9] = system: SNB-75; test: Cytotoxicity against human SNB-75 cells assessed as cell viability at 10 uM incubated for 48 hrs by sulforhodamine B assay relative to control
[10] = system: IGROV-1; test: Cytotoxicity against human IGROV-1 cells assessed as cell viability at 10 uM incubated for 48 hrs by sulforhodamine B assay relative to control
[11] = system: RPMI-8226; test: Cytotoxicity against human RPMI-8226 cells assessed as cell viability at 10 uM incubated for 48 hrs by sulforhodamine B assay relative to control
[12] = system: RXF 393; test: Cytotoxicity against human RXF 393 cells assessed as cell viability at 10 uM incubated for 48 hrs by sulforhodamine B assay relative to control
[13] = system: OVCAR-8; test: Cytotoxicity against human OVCAR-8 cells assessed as cell viability at 10 uM incubated for 48 hrs by sulforhodamine B assay relative to control
[14] = system: OVCAR-5; test: Cytotoxicity against human OVCAR-5 cells assessed as cell viability at 10 uM incubated for 48 hrs by sulforhodamine B assay relative to control
[15] = system: CAKI-1; test: Cytotoxicity against human CAKI-1 cells assessed as cell viability at 10 uM incubated for 48 hrs by sulforhodamine B assay relative to control
[16] = system: 786-0; test: Cytotoxicity against human 786-0 cells assessed as cell viability at 10 uM incubated for 48 hrs by sulforhodamine B assay relative to control
[17] = system: PC-3; test: Cytotoxicity against human PC-3 cells assessed as cell viability at 10 uM incubated for 48 hrs by sulforhodamine B assay relative to control
[18] = system: HCT-116; test: Cytotoxicity against human HCT-116 cells assessed as cell viability at 10 uM incubated for 48 hrs by sulforhodamine B assay relative to control
[19] = system: HOP-62; test: Cytotoxicity against human HOP-62 cells assessed as cell viability at 10 uM incubated for 48 hrs by sulforhodamine B assay relative to control
[20] = system: NCI-H322M; test: Cytotoxicity against human NCI-H322M cells assessed as cell viability at 10 uM incubated for 48 hrs by sulforhodamine B assay relative to control
[21] = system: SR; test: Cytotoxicity against human SR cells assessed as cell viability at 10 uM incubated for 48 hrs by sulforhodamine B assay relative to control
[22] = system: SK-MEL-28; test: Cytotoxicity against human SK-MEL-28 cells assessed as cell viability at 10 uM incubated for 48 hrs by sulforhodamine B assay relative to control
[23] = system: SF-539; test: Cytotoxicity against human SF-539 cells assessed as cell viability at 10 uM incubated for 48 hrs by sulforhodamine B assay relative to control
[24] = system: U-251; test: Cytotoxicity against human U-251 cells assessed as cell viability at 10 uM incubated for 48 hrs by sulforhodamine B assay relative to control
[25] = system: A549; test: Cytotoxicity against human A549 cells assessed as cell viability at 10 uM incubated for 48 hrs by sulforhodamine B assay relative to control
[26] = system: HCT-29; test: Cytotoxicity against human […] cells assessed as cell viability at 10 uM incubated for 48 hrs by sulforhodamine B assay relative to control
[27] = system: NCI-H23; test: Cytotoxicity against human NCI-H23 cells assessed as cell viability at 10 uM incubated for 48 hrs by sulforhodamine B assay relative to control
[28] = system: HCC 2998; test: Cytotoxicity against human HCC 2998 cells assessed as cell viability at 10 uM incubated for 48 hrs by sulforhodamine B assay relative to control
[29] = system: DU-145; test: Cytotoxicity against human DU-145 cells assessed as cell viability at 10 uM incubated for 48 hrs by sulforhodamine B assay relative to control
[30] = system: TK-10; test: Cytotoxicity against human TK-10 cells assessed as cell viability at 10 uM incubated for 48 hrs by sulforhodamine B assay relative to control
[31] = system: SF-295; test: Cytotoxicity against human SF-295 cells assessed as cell viability at 10 uM incubated for 48 hrs by sulforhodamine B assay relative to control
[32] = system: HCT-15; test: Cytotoxicity against human HCT-15 cells assessed as cell viability at 10 uM incubated for 48 hrs by sulforhodamine B assay relative to control
[33] = system: LOX IMVI; test: Cytotoxicity against human LOX IMVI cells assessed as cell viability at 10 uM incubated for 48 hrs by sulforhodamine B assay relative to control
[34] = system: SNB-19; test: Cytotoxicity against human SNB-19 cells assessed as cell viability at 10 uM incubated for 48 hrs by sulforhodamine B assay relative to control
[35] = system: UO-31; test: Cytotoxicity against human UO-31 cells assessed as cell viability at 10 uM incubated for 48 hrs by sulforhodamine B assay relative to control
[36] = system: ACHN; test: Cytotoxicity against human ACHN cells assessed as cell viability at 10 uM incubated for 48 hrs by sulforhodamine B assay relative to control
[37] = system: SK-MEL-5; test: Cytotoxicity against human SK-MEL-5 cells assessed as cell viability at 10 uM incubated for 48 hrs by sulforhodamine B assay relative to control
[38] = system: MCF7; test: Cytotoxicity against human MCF7 cells assessed as cell viability at 10 uM incubated for 48 hrs by sulforhodamine B assay relative to control
[39] = system: SK-MEL-2; test: Cytotoxicity against human SK-MEL-2 cells assessed as cell viability at 10 uM incubated for 48 hrs by sulforhodamine B assay relative to control
[40] = system: SN12C; test: Cytotoxicity against human SN12C cells assessed as cell viability at 10 uM incubated for 48 hrs by sulforhodamine B assay relative to control
[41] = system: NCI-H226; test: Cytotoxicity against human NCI-H226 cells assessed as cell viability at 10 uM incubated for 48 hrs by sulforhodamine B assay relative to control

O=S(=O)(NCCNc1nccc(-c2c(-c3cccc(F)c3)nc3sccn23)n1)c1ccccc1
viability at 10 µM [1]: 41.4% | viability at 10 µM [2]: 58.9% | viability at 10 µM [3]: 51.5% | viability at 10 µM [4]: 66% | viability at 10 µM [5]: 65.3% | viability at 10 µM [6]: 55.5% | viability at 10 µM [7]: 24.1% | viability at 10 µM [8]: 16.6% | viability at 10 µM [9]: 71.5% | viability at 10 µM [10]: 4.9% | viability at 10 µM [11]: 43.5% | viability at 10 µM [12]: 64.1% | viability at 10 µM [13]: 33.9% | viability at 10 µM [14]: 79.6% | viability at 10 µM [15]: 39.1% | viability at 10 µM [16]: 47.4% | viability at 10 µM [17]: 33.1% | viability at 10 µM [18]: 22.7% | viability at 10 µM [19]: 60.2% | viability at 10 µM [20]: 51.5% | viability at 10 µM [21]: 29.2% | viability at 10 µM [22]: 54.3% | viability at 10 µM [23]: 65.5% | viability at 10 µM [24]: 44% | viability at 10 µM [25]: 25.2% | viability at 10 µM [26]: 23.2% | viability at 10 µM [27]: 56.1% | viability at 10 µM [28]: 66.3% | viability at 10 µM [29]: 40% | viability at 10 µM [30]: 59.5% | viability at 10 µM [31]: 47.4% | viability at 10 µM [32]: 25.8% | viability at 10 µM [33]: 36.3% | viability at 10 µM [34]: 55.9% | viability at 10 µM [35]: 15.4% | viability at 10 µM [36]: 26% | viability at 10 µM [37]: 19.1% | viability at 10 µM [38]: 21.7% | viability at 10 µM [39]: 51.8% | viability at 10 µM [40]: 40.3% | viability at 10 µM [41]: 34.5%

O=C(NCCNc1nccc(-c2c(-c3cccc(F)c3)nc3sccn23)n1)c1ccc(C(F)(F)F)cc1
viability at 10 µM [1]: 59.4% | viability at 10 µM [2]: 76.5% | viability at 10 µM [3]: 86.7% | viability at 10 µM [4]: 74.7% | viability at 10 µM [5]: 96.8% | viability at 10 µM [6]: 85.2% | viability at 10 µM [7]: 32.7% | viability at 10 µM [8]: 50% | viability at 10 µM [9]: 73.7% | viability at 10 µM [10]: 27.8% | viability at 10 µM [11]: 52.7% | viability at 10 µM [12]: 81.9% | viability at 10 µM [13]: 54.8% | viability at 10 µM [14]: 93.5% | viability at 10 µM [15]: 55% | viability at 10 µM [16]: 65.7% | viability at 10 µM [17]: 61% | viability at 10 µM [18]: 50.6% | viability at 10 µM [19]: 89.9% | viability at 10 µM [20]: 81.8% | viability at 10 µM [21]: 68.9% | viability at 10 µM [22]: 82.1% | viability at 10 µM [23]: 95.7% | viability at 10 µM [24]: 77% | viability at 10 µM [25]: 62.1% | viability at 10 µM [26]: 50.2% | viability at 10 µM [27]: 80% | viability at 10 µM [28]: 100% | viability at 10 µM [29]: 83.7% | viability at 10 µM [30]: 86.1% | viability at 10 µM [31]: 74.4% | viability at 10 µM [32]: 53.1% | viability at 10 µM [33]: 64.8% | viability at 10 µM [34]: 86.8% | viability at 10 µM [35]: 34.5% | viability at 10 µM [36]: 42.6% | viability at 10 µM [37]: 56.6% | viability at 10 µM [38]: 46.3% | viability at 10 µM [39]: 69% | viability at 10 µM [40]: 66.6% | viability at 10 µM [41]: 64.8%

O=S(=O)(NCCCNc1nccc(-c2c(-c3cccc(F)c3)nc3sccn23)n1)c1cccc(F)c1
viability at 10 µM [1]: 28.6% | viability at 10 µM [2]: 50.7% | viability at 10 µM [3]: 74.8% | viability at 10 µM [4]: 75.9% | viability at 10 µM [5]: 50.8% | viability at 10 µM [6]: 63.7% | viability at 10 µM [7]: 23.4% | viability at 10 µM [8]: 9.94% | viability at 10 µM [9]: 88.6% | viability at 10 µM [10]: 18.9% | viability at 10 µM [11]: 28% | viability at 10 µM [12]: 78.8% | viability at 10 µM [13]: 18.4% | viability at 10 µM [14]: 110% | viability at 10 µM [15]: 41.5% | viability at 10 µM [16]: 66.3% | viability at 10 µM [17]: 27.1% | viability at 10 µM [18]: 48% | viability at 10 µM [19]: 61.3% | viability at 10 µM [20]: 79.9% | viability at 10 µM [21]: 64.9% | viability at 10 µM [22]: 68.3% | viability at 10 µM [23]: 86.4% | viability at 10 µM [24]: 70% | viability at 10 µM [25]: 49.3% | viability at 10 µM [26]: 30.6% | viability at 10 µM [27]: 38.8% | viability at 10 µM [28]: 99.3% | viability at 10 µM [29]: 55.5% | viability at 10 µM [30]: 72.3% | viability at 10 µM [31]: 51.1% | viability at 10 µM [32]: 22.6% | viability at 10 µM [33]: 39% | viability at 10 µM [34]: 76.8% | viability at 10 µM [35]: 28.2% | viability at 10 µM [36]: 42.5% | viability at 10 µM [37]: 13.5% | viability at 10 µM [38]: 33.7% | viability at 10 µM [39]: 47.6% | viability at 10 µM [40]: 56.3% | viability at 10 µM [41]: 23.2%
